{"source": "patent US8057783B2", "about": "“Method of injecting liquid agents at acupuncture points to arrive internal organs and method of visualizing arrival of liquid agents” (Seoul National University Industry Foundation, priority 2007, dated 2011)", "assay": "Injection of alcian blue solution at the lowest electric resistance point near Jung-Wan, arrival at pancreas observed by stereoscopic microscope", "assay_type": "in vivo", "details": "hairless mouse, subcutaneous tissue near Jung-Wan, 0.1 μl a minute for 2 to 3 hours", "procedure": "For laboratory animals, the hairless mouse (males, about 6 weeks old) supplied from the JungAng Laboratory Animal Company were used. The laboratory animals were managed in a breeding cage with temperature of 23° C. and 60% relative humidity under 12 hour light/dark cycles and supplied with food and water for ad libitum access.\nThe hairless mouse living in the above environment was anaesthetized by administering 1.5 g/kg of urethane, and all of the surgical procedures were performed under anesthesia. The hairless mouse under anesthesia were placed on the operating table under the stereoscopic microscope (Olympus SZX12) connected with the computer and the CCD camera.\nJung-Wan was determined at the middle of the umbilicus and the xiphoid process-sternum junction (JungJeong, one of acupuncture points) along the linea alba of the hairless mouse according to “GolDo method”, which is a method of finding acupuncture points by using its unique measuring units. After Jung-Wan was determined, the point having the lowest electric resistance was found within a radius of 2 mm from Jung-Wan by using the electro acupuncture point detector (Hamtech Korea Co., YNS202-S) and determined as the point into which an alcian blue solution would be injected. […]"}
{"substance": "alcian blue [alcian blue solution]", "values": [{"measurement": "distribution of the visualizing material in internal organs after injection", "value": "dispersed into the threadlike structures penetrating out through the surface of the pancreas"}]}
